Experimental findings from ChEMBL document CHEMBL3390830, “Targeting epigenetic modifiers: Inhibitors of histone methyltransferases” (Medchemcomm, 2010) are described below.

Test [1] deals with T1, Protein arginine N-methyltransferase 1 (Homo sapiens, UniProt Q99873). As to the kind of experiment: Inhibition of GST-fused PRMT1 (unknown origin) expressed in Escherichia coli BL21 assessed as reduction of asymmetric H4R3me2 level by DELFIA assay.
Test [2] has as its target T2, Histone-lysine N-methyltransferase EHMT2 (Homo sapiens, UniProt Q96KQ7).
T2 sequence (Q96KQ7 whole entry): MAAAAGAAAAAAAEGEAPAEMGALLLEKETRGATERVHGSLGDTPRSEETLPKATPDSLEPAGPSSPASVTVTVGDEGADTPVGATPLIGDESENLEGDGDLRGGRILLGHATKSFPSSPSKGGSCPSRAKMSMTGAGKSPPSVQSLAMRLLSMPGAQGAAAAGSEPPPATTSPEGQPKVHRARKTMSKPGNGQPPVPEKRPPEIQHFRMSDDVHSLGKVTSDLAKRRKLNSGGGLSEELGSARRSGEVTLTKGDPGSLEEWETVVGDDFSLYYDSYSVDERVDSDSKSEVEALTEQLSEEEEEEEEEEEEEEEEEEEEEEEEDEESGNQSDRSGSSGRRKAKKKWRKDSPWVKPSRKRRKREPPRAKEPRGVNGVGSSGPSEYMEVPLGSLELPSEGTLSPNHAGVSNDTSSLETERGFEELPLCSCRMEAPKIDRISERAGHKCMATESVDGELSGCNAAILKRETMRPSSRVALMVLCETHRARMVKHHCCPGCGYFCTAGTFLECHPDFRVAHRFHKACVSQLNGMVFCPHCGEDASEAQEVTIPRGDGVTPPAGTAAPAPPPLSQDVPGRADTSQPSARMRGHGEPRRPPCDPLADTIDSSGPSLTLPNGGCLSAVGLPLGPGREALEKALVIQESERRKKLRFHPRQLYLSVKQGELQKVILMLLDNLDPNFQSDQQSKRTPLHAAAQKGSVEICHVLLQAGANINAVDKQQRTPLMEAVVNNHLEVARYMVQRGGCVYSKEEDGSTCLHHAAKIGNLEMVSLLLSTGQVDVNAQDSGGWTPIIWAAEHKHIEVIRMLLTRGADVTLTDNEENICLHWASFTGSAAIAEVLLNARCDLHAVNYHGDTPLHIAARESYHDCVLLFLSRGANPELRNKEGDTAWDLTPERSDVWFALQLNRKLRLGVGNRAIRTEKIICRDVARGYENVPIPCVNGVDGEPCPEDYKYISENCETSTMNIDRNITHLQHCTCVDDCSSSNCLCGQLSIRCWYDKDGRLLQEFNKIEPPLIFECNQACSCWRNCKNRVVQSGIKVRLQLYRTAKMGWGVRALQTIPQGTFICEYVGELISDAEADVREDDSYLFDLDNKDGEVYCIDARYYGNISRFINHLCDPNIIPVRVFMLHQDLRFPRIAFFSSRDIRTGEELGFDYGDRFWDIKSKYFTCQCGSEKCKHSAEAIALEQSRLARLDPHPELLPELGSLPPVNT
Description: Inhibition of G9a (685 to 1000) (unknown origin) expressed in Escherichia coli BL21 assessed as reduction of H3K9me2 level by DELFIA assay.

Test [3] deals with T3, NAD-dependent protein deacetylase sirtuin-1 (Homo sapiens, UniProt Q96EB6).
T3 sequence (Q96EB6 whole entry): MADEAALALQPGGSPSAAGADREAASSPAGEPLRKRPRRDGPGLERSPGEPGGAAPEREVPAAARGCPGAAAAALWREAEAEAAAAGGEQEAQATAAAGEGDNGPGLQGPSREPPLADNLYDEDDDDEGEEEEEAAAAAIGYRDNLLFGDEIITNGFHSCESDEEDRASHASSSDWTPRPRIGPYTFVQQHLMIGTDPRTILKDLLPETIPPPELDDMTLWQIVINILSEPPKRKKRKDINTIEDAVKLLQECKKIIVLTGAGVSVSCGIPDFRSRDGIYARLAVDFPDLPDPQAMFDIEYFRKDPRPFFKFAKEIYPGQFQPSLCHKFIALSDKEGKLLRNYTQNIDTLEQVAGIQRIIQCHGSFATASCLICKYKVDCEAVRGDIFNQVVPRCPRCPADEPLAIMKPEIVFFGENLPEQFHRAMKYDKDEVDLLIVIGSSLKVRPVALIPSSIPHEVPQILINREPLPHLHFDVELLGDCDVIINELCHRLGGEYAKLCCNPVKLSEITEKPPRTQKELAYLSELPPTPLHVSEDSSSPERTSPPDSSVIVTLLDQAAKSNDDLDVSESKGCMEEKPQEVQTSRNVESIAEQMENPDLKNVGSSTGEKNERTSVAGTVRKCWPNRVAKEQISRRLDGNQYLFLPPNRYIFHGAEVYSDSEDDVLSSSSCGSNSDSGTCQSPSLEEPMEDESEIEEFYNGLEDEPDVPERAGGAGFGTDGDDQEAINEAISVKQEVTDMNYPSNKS
As to the kind of experiment: Inhibition of recombinant human N-terminal GST-tagged full length SIRT1 expressed in Escherichia coli BL21(DE3) using ZMAL as substrate after 4 hrs by homogeneous fluorescent deacetylase assay.

Test [4] addresses T1, Protein arginine N-methyltransferase 1. As to the kind of experiment: Inhibition of recombinant human GST-tagged PRMT1 assessed as inhibition of histone methylation.
The target in test [5] is Histone-lysine N-methyltransferase Su(var)3-9 (Drosophila melanogaster, UniProt P45975). Description: Inhibition of Drosophila melanogaster Su(var)3-9.
Test [6] concerns the target T2, Histone-lysine N-methyltransferase EHMT2. Description: Inhibition of G9a (unknown origin).
Test [7] concerns the target T1, Protein arginine N-methyltransferase 1. Description: Inhibition of human PRMT1 using GST-tagged Npl3 as substrate preincubated for 15 mins followed by enzyme addition measured after 1 hr by colorimetric assay.

Structures are written as SMILES.

T1 sequence (Q99873 whole entry, the tested form may be a part): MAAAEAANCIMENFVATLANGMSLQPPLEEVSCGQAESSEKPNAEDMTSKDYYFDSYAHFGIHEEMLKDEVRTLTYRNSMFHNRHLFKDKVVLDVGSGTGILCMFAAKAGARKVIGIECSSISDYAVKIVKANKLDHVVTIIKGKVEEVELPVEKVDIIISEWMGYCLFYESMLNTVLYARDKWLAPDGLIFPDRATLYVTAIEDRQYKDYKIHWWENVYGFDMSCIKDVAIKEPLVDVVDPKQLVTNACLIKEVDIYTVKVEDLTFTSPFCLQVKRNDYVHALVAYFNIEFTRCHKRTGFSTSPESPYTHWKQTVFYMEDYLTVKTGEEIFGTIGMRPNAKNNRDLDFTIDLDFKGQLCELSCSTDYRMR
Histone-lysine N-methyltransferase Su(var)3-9, sequence (P45975 whole entry): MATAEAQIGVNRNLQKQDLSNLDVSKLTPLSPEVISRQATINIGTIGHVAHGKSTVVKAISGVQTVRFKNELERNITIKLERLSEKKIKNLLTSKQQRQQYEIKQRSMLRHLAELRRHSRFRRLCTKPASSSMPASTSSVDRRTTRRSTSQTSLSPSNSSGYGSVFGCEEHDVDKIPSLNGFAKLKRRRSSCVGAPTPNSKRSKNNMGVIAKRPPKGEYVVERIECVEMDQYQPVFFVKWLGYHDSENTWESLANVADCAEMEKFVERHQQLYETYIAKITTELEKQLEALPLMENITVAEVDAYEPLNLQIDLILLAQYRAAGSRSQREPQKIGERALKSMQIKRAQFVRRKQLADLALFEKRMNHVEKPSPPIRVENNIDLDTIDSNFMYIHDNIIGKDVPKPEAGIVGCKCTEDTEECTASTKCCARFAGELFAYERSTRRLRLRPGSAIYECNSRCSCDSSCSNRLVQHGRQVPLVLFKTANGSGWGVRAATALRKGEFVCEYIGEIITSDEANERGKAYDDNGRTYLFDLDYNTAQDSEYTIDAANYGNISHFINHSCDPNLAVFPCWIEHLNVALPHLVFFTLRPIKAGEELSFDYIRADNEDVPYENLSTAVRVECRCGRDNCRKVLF

On to `COc1ccc(C(=O)Oc2ccc(CCn3c(NC(=O)c4ccc(C(F)(F)F)cc4)nc4cc(C(=O)O)ccc43)cc2)cc1`, for which the IC50 (in general, the concentration that gives 50% inhibition) in test [1] came out at 6 µM; in test [2] it was 5 µM.

Regarding `O=C(Nc1ccc2c(O)cc(S(=O)(=O)O)cc2c1)Nc1ccc2c(O)cc(S(=O)(=O)O)cc2c1`, the IC50 in test [3] amounted to 32 µM.

As for `COc1ccc(/N=N/c2c(S(=O)(=O)O)cc3cc(Cc4nc(Cl)nc(Cl)n4)ccc3c2O)cc1`, the 50% inhibitory concentration (IC50) in test [4] is 4 µM.

For the molecule `CN1C(=O)[C@@]23C[C@]4([C@]56C[C@@]78SS[C@@](CO)(C(=O)N7[C@H]5Nc5ccccc56)N(C)C8=O)c5ccccc5N[C@@H]4N2C(=O)[C@]1(CO)SS3` [CHAETOCIN], the figures for the concentration for half-maximal inhibition (IC50) in test [5] and in test [6] were 800 nM and 2500 nM, respectively.

In test [7], `O=C1OC2(c3ccccc31)c1cc(Br)c(O)c(Br)c1Oc1c2cc(Br)c(O)c1Br` [EOSIN] displayed an IC50 of 1000 nM.
